Type in all cases: cell-based
The test system of experiment [1] is BT474 tumoroids. The experiment can be described thus: Lapatinib response of BT474 tumoroids in monoculture or co-culture, cell viability by PrestoBlue assay. To be noted: Homo sapiens, BT-474, 72 h, about 72 hours. How it is done: (§1) On day 2 after culturing, cells were treated with the indicated concentrations (μM) of Lapatinib for about 72 hours. Cell viability was measured by PrestoBlue® assay.
(§2) The sensitivity of tumoroids derived from monoculture or co-culture of BT474 and HCC1569 to Lapatinib was examined. Lapatinib is a dual small molecule tyrosine kinase inhibitor targeting EGFR and HER2. […] Similar results were obtained when established tumoroids were treated with Lapatinib.

For the next experiment, the system named is HCC1569 tumoroids. The experiment can be described thus: Lapatinib response of HCC1569 tumoroids in monoculture or co-culture, cell viability by PrestoBlue assay. To be noted: HCC1569 cultured in the presence of ECs and CAFs vs monoculture. How it is done:
as §1, §2

Experiment [2] deals with BT474 co-cultured tumoroids. The experiment can be described thus: Ki-67 expression by immunohistochemistry and tumoroid formation in Lapatinib treated BT474 tumoroids. The conditions noted are these: 72 hours. How it is done:
Ki-67 can be used as a surrogate marker of clinical efficacy in cancer trials. Expression of Ki-67. Monoculture and Co-culture tumoroids were treated with increasing concentrations of Lapatinib (0-10 μM). Tumoroids were fixed and immunostained for […].

Experiment [3] deals with BT474 tumoroids. The experiment can be described thus: VEGF, IL-6 and TGF-β1 in day 5 culture supernatants of BT474 tumoroids by ELISA. To be noted: co-cultured tumoroids; Lapatinib about 2.5 μM-5 μM; day 5 supernatants. How it is done: BT474 tumoroids were monocultured or co-cultured in the presence or absence of Lapatinib (2.5-10 μM) and the levels of VEGF, IL-6, and TGF-β1 in the day 5 culture supernatants were determined by ELISA. * p<0.05.
To identify and evaluate the biomarkers of clinical efficacy, both monoculture and co-culture tumoroids were treated with increasing concentrations of Lapatinib (about 0 to about 10 μM). Five days after culture, the supernatants of the culture were tested for levels of VEGF, IL-6, and TGF-β. […] BT474 tumoroids were mono-cultured or co-cultured in the presence or absence of Lapatinib (2.5-10 μM) and the levels of VEGF, IL-6, and TGF-β1 in the day 5 culture supernatants were determined by ELISA. * p<0.05.

The subject of experiment [4] is BT474 tumoroids (SCTs and MCTs). The experiment can be described thus: Quantibody Array (multiplexed sandwich ELISA) of factors in day 5 culture supernatants of BT474 SCTs and MCTs. The protocol: BT474 tumoroids (SCTs, blue bars and MCTs, red bars) were cultured in the presence or absence of Lapatinib (0.5-12.5 μM), as in FIGS. 9A-9B, and the levels of IL-6, IL-8, MCP-1 in the day 5 culture supernatants were determined by Sandwich ELISA (FIGS. 20-21). * p<0.05.
BT474 tumoroids (SCTs, blue bars and MCTs, red bars) were cultured in the presence or absence of Lapatinib (0.5-12.5 μM), as in FIGS. 9A-9B, and the levels of PDGF-BB, DKK-1, OPG in the day 5 culture supernatants were determined by Sandwich ELISA (FIGS. 20-21). * p<0.05.
BT474 tumoroids (SCTs, blue bars and MCTs, red bars) were cultured in the presence or absence of Lapatinib (0.5-12.5 μM), as in FIGS. 9A-9B, and the levels of MMP-3 in the day 5 culture supernatants were determined by Sandwich ELISA (FIGS. 20-21). * p<0.05.
Additionally, to characterize factors and molecules released in SCTs and MCTs culture, a human Quantibody Array (RayBiotech Inc.), which utilizes a multiplexed sandwich ELISA assay and enables detection of multiple proteins/factors simultaneously, was used. […] This list includes adhesion molecules (E-selectin, ICAM-1, P-Cadherin, VE-cadherin), \growth factors (aFGF, activin A, […] (AR), bFGF, bone morphogenic protein (BMP)-2, BMP-4, BMP-6, BMP-7, BMP-9, dickkopf-1 (DKK-1), IGF-1, osteoprotegerin (OPG), osteopontin (OPN), PDGF-BB, TGFβ1, TGFβ2, TGFβ3), chemokines (monocyte chemotactic protein 1 (MCP-1)), macrophage inflammatory protein (MIP)-1α, VCAM-1), cytokines (IL-1α, IL-1β, IL-6, IL-8, IL-11, IL-17, M-CSF), receptor activator of NFkB (RANK), osteoactivin, SDF-1α, TNF related activation induced cytokine (TRANCE)) and matrix metalloproteinases (MMPs), such as MMP-2, -3, -9, -13.
To determine whether any of these factors are expressed in SCTs and MCTs, we incubated QAH-BMA-1000 array with a pool of culture supernatants of BT474-SCTs and MCTs in quadruplets. Experiments were conducted using manufacturer's protocol. An appropriate positive control was used to normalize the signal intensity. […] These include, growth factors, such as PDGF-BB, OPG and DKK-1, chemokine such as MCP-1, IL-6 and IL-8, and protease MMP-3 (see e.g. FIGS. 23A-25.)
Lapatinib treated cultures were examined for factors that are found differentially expressed in MCTs, compared to SCTs.

For another experiment, the system named is BT-474 SCTs. The experiment can be described thus: Lapatinib response of BT-474 SCTs cultured on Matrigel or FiSS, Presto Blue cell viability. To be noted: 3 d old SCTs; examined after 72 hrs. The protocol:
Cells (3×10^3) were cultured on a layer of Matrigel coated plate in the presence of growth medium supplemented with 10% Matrigel. Three days after culture, cells were treated with indicated concentrations of Lapatinib and examined after 72 hrs. Spheroids were stained with calcein AM and examined by fluorescent microscope.
To benchmark FiSS-tumoroids against Matrigel-based 3D-culture for prediction of clinical efficacy, 3 d old BT-474 SCTs (cultured on Matrigel or FiSS) were treated with Lapatinib and examined tumoroid formation (FIGS. 26A-26D) and cell viability (FIGS. 27A-27B). Although Matrigel induced numerous smaller size tumoroids compared to FiSS tumoroids, their response to Lapatinib was similar as shown in FIGS. 27A-27B.

The target in experiment [5] is BT474 tumoroids. The experiment can be described thus: High-content analysis (Operetta) of Ki-67 immunostaining in BT474 tumoroids. To be noted: different concentrations of Lapatinib; about 72 hrs. How it is done: Quantification of immunostaining was completed using Operetta.
To optimize quantification of high content imaging for BT474 tumoroids were incubated for 72 h and then imaged on the Operetta HCI System with a 20× objective. Single plane z-stacked images of BT474 tumoroids on scaffolds were stained with DAPI and images were acquired using the Operetta high content imaging system from Perkin Elmer. Representative fields were selected at 20× magnification and z-stacks of these fields were acquired with an interval of 2 um between each z-plane. Z-stacks were analyzed using the image processing software ImageJ (NIH). […] Using HCA we have quantified changes in Ki-67 expression in BT474 tumoroids treated with different concentrations of Lapatinib.

Setting [6] is: MCTs, Lapatinib 0.5-12.5 μM, dose dependent.

As to `CS(=O)(=O)CCNCc1ccc(-c2ccc3ncnc(Nc4ccc(OCc5cccc(F)c5)c(Cl)c4)c3c2)o1` [Lapatinib], the half-maximal inhibitory concentration (IC50) in the experiment on BT474 tumoroids [1] (BT474 cells cultured on 2D or FiSS (monoculture)) was < 2.5 µM. Further, in the experiment with BT474 tumoroids [1] (MCTs, in the presence of ECs and CAFs), the IC50 is > 10 µM. For the same compound, in the experiment with HCC1569 tumoroids, the “resistance to Lapatinib” value is “increase in resistance”. Also, in experiment [2] (Lapatinib 2.5 μM), the Ki-67 staining result was “completely abrogated”. In addition, the tumoroid formation result in experiment [2] (Lapatinib 2.5 mM as printed) is on record as “inhibited tumoroid formation”. In addition, in the experiment with BT474 tumoroids [3], the “secretion of IL-6” value was “significantly decreased”, the “secretion of TGF-β” value is “significantly decreased” and the “secretion of VEGF” value is on record as “significantly decreased”. Also, in experiment [4] (MCTs, 12.5 uM Lapatinib), the “reduction of MCP-1 expression” value was ≤ 50%. In addition, in experiment [4] (MCTs, Lapatinib 0.5-12.5 μM), the DKK-1 expression entry is on record as “reduced significantly” and the MMP-3 expression entry was “reduced only marginally”. For the same compound, in experiment [4] (setting [6]), the “IL-6 in culture supernatants” value is listed as “reduced to basal level” and the “IL-8 in culture supernatants” value is “reduced to basal level”. Also, the PDGF-BB expression entry in experiment [4] (SCTs and MCTs, Lapatinib 0.5-12.5 μM) is “did not alter”. The MCP-1 expression entry in experiment [4] (SCTs, Lapatinib 0.5-12.5 μM) is “abolished MCP-1 expression completely”. Further, the “response to Lapatinib (cell viability), Matrigel vs FiSS tumoroids” value in the experiment on BT-474 SCTs is “similar”. Moreover, on BT474 tumoroids [5], the “Ki-67 expression (relative intensity, HCA)” value is given as “dose-dependent Ki-67 expression”.

The values above are taken from patent US20170058264A1, “FORMATION OF MULTICELLULAR TUMOROIDS AND USES THEREOF” (UNIVERSITY OF SOUTH FLORIDA, priority 2014, published 2017).
